Source: US9687477B2 (priority 2011, dated 2017)
Read-outs that look alike come from different tables or passages of the source.

Columns and labels:
influenza virus [1] = conditions: cited from earlier work
influenza virus [2] = assay: Viral NP in influenza virus-infected HEK-cells treated with sphingolipids (Western blot); assay type: cell-based, Influenza A/WSN/33 virus (H1N1); conditions: 1 MOI, 1 μM, 2 dpi
Description: FIG. 6 (Panels A-D) set forth data illustrating the enhanced susceptibility of SK1-cells to influenza virus infection. (A) HEK-cells (open triangle) or SK1-cells (filled square) were infected with influenza virus at 0.1 MOI. At 12, 18 or 48 hpi, virus titers were determined by plaque assay. n=3 separate virus-infected cells per group at each time point; Mean±SEM. (B) Western blot analysis was conducted at 2 dpi to detect viral NP and actin. (C) Cell lysates were used for Western blot analysis to detect STAT1, pSTAT1 and actin. (D) HEK-cells were infected with influenza virus at 1 MOI and treated with solvent controls, FTY720 (1 μM), D-erythro-sphingosine (1 μM) or S1P (1 μM). At 2 dpi, total proteins were extracted to detect viral NP and actin by Western blot analysis.
(§1) Specific antibodies against actin, influenza viral protein NP, NS1, NS2, M1, M2, Bax, Bcl-2, PARP, STAT1, pSTAT1, STAT2, pSTAT2, ERK, pERK, p38, p-p38, Akt, pAkt, JNK, pJNK, RanBP3, pRanBP3, p-p90RSK, and FLAG for SPL and SK1 were purchased from Cell Signaling Technology, Abcam, Upstate, or Santa Cruz Biotechnology. Total proteins were extracted by a RIPA buffer supplemented with inhibitors blocking proteases and phosphatases, and then normalized by using a Bradford assay. The protein samples (20 μg each) were run on a 12% SDS-PAGE gel and transferred to a PROTRAN-NC (Whatman). Membrane-bound antibodies were detected by enhanced chemiluminescence (Pierce). All of the presented data were repeated with independent experimental settings, at least twice.
FTY720, D-erythro-sphingosine, and S1P were purchased from Cayman Chemicals. HEK-cells were infected with influenza virus and simultaneously treated with FTY720 (1 μM), D-erythro-sphingosine (1 μM), or its solvent (1% DMSO). Similarly, virus-infected cells were treated with S1P (1 μM) or its solvent (3 mM NaOH). These experiments were repeated two more times, with similar results.

influenza virus [3] = assay: Survival and weight loss of influenza virus-infected mice treated with SK inhibitor; assay type: in vivo, C57BL/6 mice
Description: FIG. 8 (Panels A-B) set forth data illustrating reduced mortality of influenza virus-infected mice by SK inhibitor treatment. (A) Wild-type C57BL/6 mice (n=5/group) were infected in vivo with influenza virus at 10^5 plaque forming unit (PFU) intra-nasally (i.n.) and injected with vehicle (control, CTR) or DMS {0.1 mg/kg (mpk)} and their lifespan was monitored. (B) Mice were infected with 5×10^4 PFU of influenza virus and then treated with vehicle (control, CTR), DMS (0.003 mpk) or SKI-II (0.012 mpk) via intranasal inoculation. Survival of the infected mice was monitored daily for 14 days.
Refer to FIGS. 8A and 8B. Wild-type C57BL/6 mice (n=5/group) were infected in vivo with influenza virus at 10^5 PFU intra-nasally (i.n.) and injected with vehicle (CTR) or DMS {0.1 mg/kg (mpk)} and their lifespan was monitored.

RanBP3 = assay: Influenza virus-induced phosphorylation of RanBP3 in MDCK cells (Western blot); assay type: cell-based, canine; conditions: 5 MOI, 5 μM
Description: FIG. 11 (Panels A-E) set forth data illustrating critical role of RanBP3 in influenza virus replication and RanBP3 regulation by SK inhibitor. (A-B) MDCK cells were infected with influenza virus at 5 MOI and treated with VEH or DMS (5 μM). Cell lysates were obtained at the indicated time points and the expression of pRanBP3 was assessed by Western blot analysis. Relative expression of pRanBP3 is shown in panel B. (C-E) HEK293 cells were transfected with control siRNA (siCTR) or siRNA targeting RanBP3 (siRanBP3). Western blotting was performed to detect RanBP3 and pRanBP3 (C). Cells were transfected with siRNA and then infected with influenza virus at 0.001 MOI. Virus titers were determined by using a plaque assay (D). Cells were transfected with siRNA and then infected with influenza virus at 1 MOI for 12 hrs. Immunocytochemistry followed by confocal microscopic analysis was performed to detect influenza viral NP (E).
(§2) Specific antibodies against actin, influenza viral protein NP, NS1, NS2, M1, M2, Bax, Bcl-2, PARP, STAT1, pSTAT1, STAT2, pSTAT2, ERK, pERK, p38, p-p38, Akt, pAkt, JNK, pJNK, RanBP3, pRanBP3, p-p90RSK, and FLAG for SPL and SK1 were purchased from Cell Signaling Technology, Abcam, Upstate, or Santa Cruz Biotechnology. […] Membrane-bound antibodies were detected by enhanced chemiluminescence (Pierce). […]

ERK signaling pathway = assay: Influenza virus-induced activation of ERK MAP kinase signal in MDCK cells (Western blot); assay type: cell-based, canine; conditions: 3 MOI, 5 μM
Description: FIG. 12 (Panels A-C) set forth data illustrating reduced activation of ERK MAP kinase signal by SK inhibitor treatment upon influenza virus infection. (A). MDCK cells were treated with VEH or DMS (5 μM) and infected with influenza virus at 3 MOI. Cell lysates were obtained at the indicated time points and the expression of ERK MAP kinase signaling components were assessed by Western blot analysis. Relative expression of pERK and p90RSK is shown in panels B and C respectively (dotted line, VEH treated; solid line, DMS treated).
as §1

[4] = tested on: Influenza A/WSN/33 virus (H1N1); assay: microbe, parasite or virus in culture; assay type: cell-based; conditions: read-out: EC50 (50% efficacy concentration that blocks virus production)
[5] = tested on: Measles virus (Edmonston strain); assay type: cell-based
influenza virus [6] = assay: JAK inhibitor / STAT1 inhibitor assay: viral NP in infected HEK- and SPL-cells; assay type: cell-based, Influenza A/WSN/33 virus (H1N1); conditions: 1 MOI, treated at 2 hpi, 10 μM, after 2 days
From the text: FIG. 4 (Panels A-E) set forth data illustrating the analyses for the activation of JAK/STAT following influenza virus infection of SPL-cells. HEK-cells or SPL-cells were uninfected or infected with influenza virus at 1 MOI. (A) At 1 dpi, cell lysates were used for Western blot analysis to detect STAT1, pSTAT1, STAT2, pSTAT2 and actin. (B) At 0, 12 or 18 hpi, whole proteins were extracted and then used for Western blot analysis to detect STAT1, pSTAT1 and actin. (C) HEK- or SPL-cells were pre-treated with fludarabine (1 μM) blocking STAT1 expression, and at 2 dpi, the expression of viral NP and actin was analyzed. (D) HEK-cells (filled bars) and SPL-cells (open bars) were uninfected (CTR) or infected with influenza virus at 1 MOI (left panel) or 10 MOI (right panel). Reverse transcription followed by quantitative real-time PCR was performed to detect the relative mRNA level of IFN-β. […] After 2 days, the level of viral NP and actin was assessed by Western blot analysis.
as §2

In the case of CCCCCCCOc1ccc(CC[C@@](C)(N)CO)cc1 [AAL-R], the “propagation of influenza virus” value (influenza virus [1]; reference 18) is given as “did not significantly alter the propagation of influenza virus” and the “influenza virus-induced immune pathology” value (influenza virus [1]; references 17, 18) is given as “alleviate influenza virus-induced immune pathology”.

In the case of CCCCCCCCCCCCC/C=C/[C@@H](O)[C@@H](N)CO [D-erythro-sphingosine], the “synthesis of influenza viral NP” value (influenza virus [2]) is reported as “failed to enhance the synthesis of influenza viral NP”.

In the case of CCCCCCCCCCCCC/C=C/[C@@H](O)[C@H](CO)N(C)C [DMS, D-erythro-N,N-dimethylsphingosine], the “weight lost by treated infected mice” value (influenza virus [3]; 10^5 PFU i.n., single dose 0.1 mpk, at 9-10 dpi) is reported as ~20%, the “mortality rate of the infected mice” value (influenza virus [3]; mouse, in vivo, 0.012 mg/kg) is reported as “decreased the mortality rate of the infected mice” and the “protection from influenza virus-induced death (lifespan)” value (influenza virus [3]; mouse, in vivo, 0.1 mg/kg) is reported as “effectively protected them from influenza virus-induced death”. For the same compound, the “weight loss of the infected mice (morbidity experiment)” value (influenza virus [3]; n=5/group, −15% in CTR) was −7%, the “influenza virus-induced phosphorylation of RanBP3” value (RanBP3) was “blocked influenza virus-induced phosphorylation of RanBP3” and the “influenza virus-induced activation (phosphorylation) of ERK” value (ERK signaling pathway) was “suppress influenza virus-induced activation”. The “influenza virus-induced activation (phosphorylation) of p90RSK” value (ERK signaling pathway) was “suppress influenza virus-induced activation” and the EC50 [4] was 4.1 µM.

In the case of CCCCCCCCc1ccc(CCC(N)(CO)CO)cc1 [FTY720], the “synthesis of influenza viral NP” value (influenza virus [2]) is reported as “failed to enhance the synthesis of influenza viral NP”.

In the case of CCCCCCCCCCCCC/C=C/[C@@H](O)[C@@H](N)COP(=O)(O)O [S1P, sphingosine-1-phosphate], the “synthesis of influenza viral NP” value (influenza virus [2]) is reported as “failed to enhance the synthesis of influenza viral NP”.

In the case of Oc1ccc(Nc2nc(-c3ccc(Cl)cc3)cs2)cc1 [SKI-II, 4-[4-(4-Chloro-phenyl)-thiazol-2-ylamino]-phenol], the “viability of mice infected with influenza virus” value (influenza virus [3]; single dose 0.012 mpk, 5×10^4 PFU, intranasal, 14 days) is reported as “increased viability of mice infected with influenza virus”, the “expression of measles viral proteins” value [5] is reported as “inhibited” and the “production of measles virus (viral titers, plaque assay)” value [5] is reported as “interfered with the production of measles virus”. It also gave an EC50 ([4]; Influenza A virus, MDCK) of 2.5 µM.

In the case of JAK inhibitor I, the “NP expression in HEK-cells” value (influenza virus [6]; HEK-cells) is reported as “only a little increase of NP expression” and the “expression level of viral NP in SPL-cells” value (influenza virus [6]; SPL-cells) is reported as “strongly elevated the expression level of viral NP”.
